Laboratory results from patent US20240409585A1, “MACROCYCLIC IMMUNOMODULATORS” (priority 2021, published 2024).
Bridge positions count the residues as written; N and C are the ends. Square brackets hold non-standard residues; d marks the D form. Peptide text beside a SMILES is read from it. Bip = N[C@@H](Cc1ccc(-c2ccccc2)cc1)C(=O)O; Bta = N[C@@H](Cc1csc2ccccc12)C(=O)O; NMeA = CN[C@@H](C)C(=O)O; Orn = NCCC[C@H](N)C(=O)O; Dab = NCC[C@H](N)C(=O)O

The compounds below were run against T1, PE-labeled human PD-L1-Ig binding to Jurkat cell line over-expressing human PD-1 (Jurkat-PD-1) (Homo sapiens, UniProt Q15116) (assay: Jurkat-PD-1 Cell Binding High-Content Screening Assay (CBA): Method 1). Details: Jurkat-hPD-1 cells, PE-labeled PD-L1-Ig 20 nM final; read-out: Jurkat HPDL1 PD1 IC50 (uM) (Method 1).
T1 construct: expressed in transfected cells; host or cells: Jurkat
T1 sequence (Q15116 25-288): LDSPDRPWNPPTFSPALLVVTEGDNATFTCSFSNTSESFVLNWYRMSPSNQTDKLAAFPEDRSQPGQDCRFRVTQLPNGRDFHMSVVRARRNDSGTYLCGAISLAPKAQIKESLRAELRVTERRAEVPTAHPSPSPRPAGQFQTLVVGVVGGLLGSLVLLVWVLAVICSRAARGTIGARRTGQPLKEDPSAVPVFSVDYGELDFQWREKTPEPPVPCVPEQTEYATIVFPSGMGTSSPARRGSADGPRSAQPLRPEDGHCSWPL
Protocol: Phycoerythrin (PE) was covalently linked to the Ig epitope tag of human PD-L1-Ig and fluorescently-labeled PD-L1-Ig was used for binding studies with a Jurkat cell line over-expressing human PD-1 (Jurkat-PD-1). Briefly, 8×10^3 Jurkat-hPD-1 cells were seeded into 384 well plates in 20 μl of DMEM supplemented with 10% fetal calf serum. 100 nl of compound was added to cells followed by incubation at 37° C. for 2 hours. Then, 5 μl of PE-labeled PD-L1-Ig (20 nM final), diluted in DMEM supplemented with 10% fetal calf serum. […] Data was collected and processed using a Cell Insight NXT High Content Imager and associated software.

Compound	IC50
CC(C)C[C@@H]1NC(=O)[C@H](CCCN)NC(=O)[C@H](Cc2csc3ccccc23)NC(=O)[C@H](C)N(C)C(=O)[C@H](CCC(=O)O)NC(=O)[C@H](Cc2ccc(-c3ccccc3)cc2)NC(=O)[C@H](C(C)C)NC(=O)[C@H](Cc2c[nH]c3ccccc23)NC(=O)[C@H](CC(=O)O)NC(=O)[C@H](Cc2ccc(O)cc2)NC(=O)[C@H](Cc2ccccc2)NC(=O)CSC[C@@H](C(=O)N[C@@H](C)C(N)=O)NC(=O)[C@H]([C@@H](C)O)NC(=O)[C@H](C(C)C)NC1=O [Compound 1132] ({CH2CO}-FYDWV[Bip]E[NMeA][Bta][Orn]LVTCA-NH2; thioether N-14)	0.16 µM
CC(C)C[C@@H]1NC(=O)[C@H](CCN)NC(=O)[C@@H](CC(C)C)NC(=O)[C@H](C)N(C)C(=O)[C@H](CCC(=O)O)NC(=O)[C@H](Cc2ccc(-c3ccccc3)cc2)NC(=O)[C@H](C(C)C)NC(=O)[C@H](Cc2c[nH]c3ccccc23)NC(=O)[C@H](CC(=O)O)NC(=O)[C@H](Cc2ccc(O)cc2)NC(=O)[C@H](Cc2ccccc2)NC(=O)CSC[C@@H](C(=O)N[C@@H](C)C(N)=O)NC(=O)[C@H]([C@@H](C)O)NC(=O)[C@H](C(C)C)NC1=O [Compound 1134] ({CH2CO}-FYDWV[Bip]E[NMeA][dL][Dab]LVTCA-NH2; thioether N-14)	0.11 µM
CC(C)C[C@@H]1NC(=O)[C@H](CCCN)NC(=O)[C@@H](CC(C)C)NC(=O)[C@H](C)N(C)C(=O)[C@H](CCCNC(=N)N)NC(=O)[C@H](Cc2ccc(-c3ccccc3)cc2)NC(=O)[C@H](C(C)C)NC(=O)[C@H](Cc2c[nH]c3ccccc23)NC(=O)[C@H](CC(=O)O)NC(=O)[C@H](Cc2cnc[nH]2)NC(=O)[C@H](Cc2cnc[nH]2)NC(=O)CSC[C@@H](C(=O)N[C@@H](C)C(N)=O)NC(=O)[C@H]([C@@H](C)O)NC(=O)[C@H](C(C)C)NC1=O [Compound 1136] ({CH2CO}-HHDWV[Bip]R[NMeA][dL][Orn]LVTCA-NH2; thioether N-14)	0.21 µM

Results, then the compound that gave them:

IC50	Compound
0.35 µM	CC(C)C[C@@H]1NC(=O)[C@H](CCCNC(=N)N)NC(=O)[C@H](Cc2csc3ccccc23)NC(=O)[C@H](C)N(C)C(=O)[C@H](CCC(=O)O)NC(=O)[C@H](Cc2ccc(-c3ccccc3)cc2)NC(=O)[C@H](C(C)C)NC(=O)[C@H](Cc2c[nH]c3ccccc23)NC(=O)[C@H](CC(=O)O)NC(=O)[C@H](Cc2ccc(O)cc2)NC(=O)[C@H](Cc2ccccc2)NC(=O)CSC[C@@H](C(=O)N[C@@H](C)C(N)=O)NC(=O)[C@H]([C@@H](C)O)NC(=O)[C@H](C(C)C)NC1=O [Compound 1133] ({CH2CO}-FYDWV[Bip]E[NMeA][Bta]RLVTCA-NH2; thioether N-14)
0.14 µM	CC(C)C[C@@H]1NC(=O)[C@H](CCCNC(=N)N)NC(=O)[C@@H](CC(C)C)NC(=O)[C@H](C)N(C)C(=O)[C@H](CCC(=O)O)NC(=O)[C@H](Cc2ccc(-c3ccccc3)cc2)NC(=O)[C@H](C(C)C)NC(=O)[C@H](Cc2c[nH]c3ccccc23)NC(=O)[C@H](CC(=O)O)NC(=O)[C@H](Cc2ccc(O)cc2)NC(=O)[C@H](Cc2ccccc2)NC(=O)CSC[C@@H](C(=O)N[C@@H](CCC(=O)O)C(N)=O)NC(=O)[C@H]([C@@H](C)O)NC(=O)[C@H](C(C)C)NC1=O [Compound 1135] ({CH2CO}-FYDWV[Bip]E[NMeA][dL]RLVTCE-NH2; thioether N-14)
0.27 µM	CC(C)C[C@@H]1NC(=O)[C@H](CCN)NC(=O)[C@@H](CC(C)C)NC(=O)[C@H](C)N(C)C(=O)[C@H](CCCNC(=N)N)NC(=O)[C@H](Cc2ccc(-c3ccccc3)cc2)NC(=O)[C@H](C(C)C)NC(=O)[C@H](Cc2c[nH]c3ccccc23)NC(=O)[C@H](CC(=O)O)NC(=O)[C@H](Cc2cnc[nH]2)NC(=O)[C@H](CC(N)=O)NC(=O)CSC[C@@H](C(=O)N[C@@H](C)C(N)=O)NC(=O)[C@H]([C@@H](C)O)NC(=O)[C@H](C(C)C)NC1=O [Compound 1137] ({CH2CO}-NHDWV[Bip]R[NMeA][dL][Dab]LVTCA-NH2; thioether N-14)
